# Columns and labels:
# [1] = target: Phosphodiesterase 4 enzyme; test: Inhibition of PDE4; type: biochemical; conditions: PDE4 purified from U937 human monocytic cells; 1 μM cAMP, 45 min at 30° C.
# Method: Phosphodiesterase 4 enzyme was purified from U937 human monocytic cells by gel filtration chromatography, and phosphodiesterase reactions were carried out as previously described. See, e.g., Muller et al., Bioorg. Med. Chem. Lett., 1998, 8(19): 2669-2674. Briefly, reactions were carried out in 96-well deep-well plates in 50 mM Tris HCl pH 7.5, 5 mM MgCl2, 1 μM cyclic adenosine monophosphate (cAMP), plus 10 nM [^3H]-cAMP for 45 min at 30° C. The reactions were terminated by boiling, treated with 1 mg/ml snake venom, and separated using AG-1X8 ion exchange resin (BioRad). Reactions consumed less than 15% of available substrate.
# TNF-α = test: In vivo LPS-induced TNF-α production assay; conditions: Rattus norvegicus, 1.5 h; p.o.; male CD rats, 0.05 mg/kg LPS, blood 90 minutes after LPS challenge; read-out: ED50, TNF-α levels in rat plasma
# Method: Male CD rats procured from Charles River Laboratories at seven weeks of age are allowed to acclimate for one week prior to use. A lateral tail vein is cannulated percutaneously with a 22-gage over-the-needle catheter under brief isoflurane anesthesia. Rats are administered a PDE4 inhibitor of the invention either by intravenous injection via the tail vein catheter or oral gavage 15 to 180 min prior to injection of 0.05 mg/kg LPS (E. Coli 055:B5). Catheters are flushed with 2.5 mL/kg of normal injectable saline. Blood is collected via cardiac puncture 90 minutes after LPS challenge. Plasma is prepared using lithium heparin separation tubes and frozen at −80° C. until analyzed. TNF-α levels are determined using a rat specific TNF-α ELISA kit (Busywork). The ED50 values are calculated as the dose of the PDE4 inhibitor of the invention at which the TNF-α production is reduced to 50% of the control value.
# Aqueous solubility = type: physicochemical; conditions: water (aqueous)
# Method: Thus, there exists a need for alternative formulations of Compound A in order to increase the bioavailability of the drug upon oral administration. Provided herein are oral dosage forms addressing this need.
# The above method results in a physically stable solid dispersion of Compound A having an aqueous solubility of about 2 μg/mL.
smiles,measurement,setting,value
"CCOc1cc([C@@H](CS(C)(=O)=O)N2Cc3cccc(NC(=O)C4CC4)c3C2=O)ccc1OC [Compound A, Cyclopropanecarboxylic acid {2-[(1S)-1-(3-ethoxy-4-methoxy-phenyl)-2-methanesulfonyl-ethyl]-3-oxo-2,3-dihydro-1H-isoindol-4-yl}-amide]",IC50,[1],105 nM
same,ED50,TNF-α,~7.8 µg/kg
same,solubility,Aqueous solubility,~2 µg/mL

# — patent US9757355B2, “Oral dosage forms of cyclopropanecarboxylic acid {2-[(1S)-1-(3-ethoxy-4-methoxy-phenyl)-2-methanesulfonyl-ethyl]-3-oxo-2,3-dihydro-1H-isoindol-4-yl}-amide” (Celgene Corporation, priority 2011, dated 2017)
